Test results published in ChEMBL document CHEMBL5625228, “Design, synthesis, and bioactivity evaluation of novel amide/sulfonamide derivatives as potential anti-inflammatory agents against acute lung injury and ulcerative colitis” (Eur J Med Chem, 2023).
pIC50: −log10 of the molar value. Calls of active or inactive are those of the source. The rule behind the calls is not given here.

Assays:
Mus musculus [1] = test: Antiinflammatory activity against LPS-induced acute lung injury C57BL/6 mouse model assessed as suppression of IL-6 level in serum at 20 mg/kg, IG preincubated with compound for 30 mins followed by LPS-induction and measured after 6 hrs by ELISA analysis; assay type: functional, organism-based; settings: time 390.0 min
[2] = MRT (0 to t) in Sprague-Dawley rat at 10 mg/kg, po measured upto 24 hrs by LC-MS analysis; assay type: ADME, organism-based; settings: in vivo
[3] = AUC (0 to t) in Sprague-Dawley rat at 1 mg/kg, iv measured upto 24 hrs by LC-MS analysis; assay type: ADME, organism-based; settings: in vivo
J774.A1 [4] = test: Antiinflammatory activity against LPS-induced mouse J774.A1 cells assessed as reduction in p65 nuclear translocation at 20 uM incubated for 2 hrs by DAPI staining based immunofluorescence analysis; assay type: functional, cell-based
[5] = Tmax in Sprague-Dawley rat at 1 mg/kg, iv measured upto 24 hrs by LC-MS analysis; assay type: ADME, organism-based; settings: in vivo
J774.A1 [6] = test: Antiinflammatory activity against mouse J774.A1 cells assessed as inhibition of LPS-induced TNF-alpha production pretreated with compound for 30 mins followed by LPS induction and measured after 24 hrs by ELISA analysis; assay type: functional; settings: time 1470 min; 24.5 h
[7] = Cmax in Sprague-Dawley rat at 10 mg/kg, po measured upto 24 hrs by LC-MS analysis; assay type: ADME, organism-based; settings: in vivo
J774.A1 [8] = test: Antiinflammatory activity against mouse J774.A1 cells assessed as inhibition of LPS-induced TNF-alpha release preincubated with compound for 30 mins followed by LPS-induction and measured after 24 hrs by ELISA analysis; assay type: functional, cell-based
Mus musculus [9] = test: Antiinflammatory activity against LPS-induced acute lung injury C57BL/6 mouse model assessed as decrease in IL-6 mRNA level in lung at 20 mg/kg, IG preincubated with compound for 30 mins followed by LPS-induction and measured after 6 hrs by qPCR analysis; assay type: functional, organism-based; settings: time 390.0 min
Mus musculus [10] = test: Antiinflammatory activity against DSS-induced acute colitis C57BL/6 mouse model assessed as reduction in crypt necrosis in colon at 5 mg/kg, po pretreated with DSS for 7 days followed by compound addition for every day for 10 days by H and E staining based analysis; assay type: functional, organism-based; settings: time 10.0 day
Mus musculus [11] = test: Antiinflammatory activity against LPS-induced acute lung injury C57BL/6 mouse model assessed as alveolar septa thickness in lung at 20 mg/kg, IG preincubated with compound for 30 mins followed by LPS-induction and measured after 6 hrs by H and E staining based analysis; assay type: functional, organism-based; settings: time 390.0 min

MRT last at 24 h [2]: 7.2 h | AUC(0-t) at 24 h [3]: 1110 ng·h/mL | Tmax [5]: 8.4 min | Cmax [7]: 168 ng/mL | pIC50 (J774.A1 [8]): 5.36
Compound: O=[N+]([O-])c1ccc(N2CCN(c3ccc(S(=O)(=O)NCc4ccccn4)cc3[N+](=O)[O-])CC2)cc1
Activity (Mus musculus [1]): Active | Activity (J774.A1 [4]): Active | inhibition (INH) (J774.A1 [6]): 70.09% | Activity (Mus musculus [9]): Active | Activity (Mus musculus [10]): Active | Activity (Mus musculus [11]): Active
